In ChEMBL document CHEMBL1127003, “N-oleoyl-1,2,3,4-tetrahydroisoquinolines as conformationally restricted inhibitors of acyl-CoA:cholesterol acyl transferase (ACAT)” (Bioorg Med Chem Lett, 1993):

What was measured:
[1] = molecular target: T1, Sterol O-acyltransferase 1 (Rattus norvegicus, UniProt O70536); experiment: Inhibitory activity was evaluated in rat liver microsomes using Acyl coenzyme A:cholesterol acyltransferase microsomal assay.; parameters: species or system Microsome
T1 sequence (O70536 whole entry): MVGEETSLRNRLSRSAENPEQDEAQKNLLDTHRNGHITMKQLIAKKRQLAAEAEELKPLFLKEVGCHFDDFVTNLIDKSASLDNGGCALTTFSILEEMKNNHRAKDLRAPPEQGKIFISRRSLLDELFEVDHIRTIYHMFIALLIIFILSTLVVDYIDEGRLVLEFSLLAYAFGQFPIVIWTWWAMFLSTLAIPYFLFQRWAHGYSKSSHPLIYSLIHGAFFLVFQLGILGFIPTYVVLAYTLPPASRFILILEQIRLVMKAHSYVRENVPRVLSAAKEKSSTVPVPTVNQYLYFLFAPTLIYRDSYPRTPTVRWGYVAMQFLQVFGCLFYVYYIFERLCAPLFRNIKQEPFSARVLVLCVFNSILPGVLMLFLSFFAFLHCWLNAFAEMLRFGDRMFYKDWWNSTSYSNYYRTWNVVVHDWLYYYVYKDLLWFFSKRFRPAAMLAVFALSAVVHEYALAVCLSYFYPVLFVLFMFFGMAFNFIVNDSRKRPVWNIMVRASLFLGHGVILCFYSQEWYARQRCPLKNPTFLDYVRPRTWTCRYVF

[2] = molecular target: T2, Sterol O-acyltransferase 1 (Rattus norvegicus) (UniProt O70536); experiment: Percent inhibition of Acyl coenzyme A:cholesterol acyltransferase at a concentration of 25(micro M) was evaluated in rat liver microsomes using ACAT microsomal assay.; conditions: Microsome
T2 sequence (whole entry): T1 sequence (O70536 whole entry)

Compound	IC50 [1] [µM]	inhibition [2] [%]
CCCCCCCC/C=C\CCCCCCCC(=O)NC(Cc1ccccc1)c1ccccc1 (stereo unspecified)	0.15	87
CCCCCCCC/C=C\CCCCCCCC(=O)N1CCc2cc(OC)c(OC)cc2C1Cc1ccccc1 (stereo unspecified)	–	63
CCCCCCCC/C=C\CCCCCCCC(=O)N1Cc2cc(OC)c(OC)cc2CC1c1ccc(OC)c(OC)c1 (stereo unspecified)	–	67
CCCCCCCC/C=C\CCCCCCCC(=O)N1CCc2ccccc2C1Cc1ccccc1 (stereo unspecified)	4.8	81
CCCCCCCC/C=C\CCCCCCCC(=O)N1CCc2cc(O)c(O)cc2C1Cc1ccccc1 (stereo unspecified)	–	73
CCCCCCCC/C=C\CCCCCCCC(=O)N1Cc2cc(OC)c(OC)cc2CC1c1ccccc1 (stereo unspecified)	3.8	86
CCCCCCCC/C=C\CCCCCCCC(=O)N1CCc2cc(OC)c(OC)cc2C1Cc1ccc(OC)c(OC)c1 (stereo unspecified)	2.7	91
